# Activity calls are given as the source filed them. For most assays here, no stated cut-off is given here; in the data, actives have a measured EC50 and inactives only a lower limit.
# Assays:
# BJ [1] = test: cytotoxicity toward BJ-TERT fibroblasts, dose response, cell-based, RAS-independent, luminescence (AID 1933); type: functional; conditions: Homo sapiens
# BJ [2] = test: cytotoxicity toward BJ-TERT-LT-ST fibroblasts, dose response, cell-based, RAS-independent, luminescence (AID 1935); type: functional; conditions: Homo sapiens;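 further: BJ fibroblasts immortalized with TERT plus LT and ST oncogenes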
# [3] = cytotoxicity toward DRD oncogenic fibroblasts, dose response, cell-based, non-viral oncogenic, luminescence (AID 1934); type: functional; conditions: Homo sapiens
# BJ [4] = test: cells; type: functional, cell-based; conditions: Homo sapiens
# [5] = molecular target: T1, Heat shock factor protein 1 (Mus musculus, UniProt P38532); test: inhibition of MG132-induced HSE-luciferase signal, confirmation, cell-based, NIH3T3, luminescence, dose retest (AID 2382); type: functional;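 further: NIH3T3 fibroblasts with HSF1-driven luciferase reporter stressed by proteasome inhibitor MG132; luminescence from HSF1-driven luciferase expression after 8 hours of MG132 stress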
# T1 sequence (P38532 whole entry): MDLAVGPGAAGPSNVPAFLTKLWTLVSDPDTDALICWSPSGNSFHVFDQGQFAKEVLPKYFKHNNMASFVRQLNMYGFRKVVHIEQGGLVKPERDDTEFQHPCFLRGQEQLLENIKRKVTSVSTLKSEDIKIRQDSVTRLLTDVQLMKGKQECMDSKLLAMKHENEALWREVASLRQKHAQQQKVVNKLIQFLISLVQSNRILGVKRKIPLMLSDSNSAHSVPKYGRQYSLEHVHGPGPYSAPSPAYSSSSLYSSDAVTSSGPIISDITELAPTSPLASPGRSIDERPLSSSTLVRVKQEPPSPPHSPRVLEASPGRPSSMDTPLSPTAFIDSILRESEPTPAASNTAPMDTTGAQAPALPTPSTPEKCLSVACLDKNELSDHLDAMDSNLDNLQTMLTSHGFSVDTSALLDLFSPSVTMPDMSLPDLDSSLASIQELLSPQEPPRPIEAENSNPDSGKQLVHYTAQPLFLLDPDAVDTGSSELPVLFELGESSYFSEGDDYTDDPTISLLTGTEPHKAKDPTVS
# Paired box protein Pax-8 = Paired box protein Pax-8 (Homo sapiens, UniProt Q06710); test: inhibitors of PAX8-driven TPO luciferase reporter, dose response, RMG-I cells, cherry-pick (AID 687027); type: functional, cell-based;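 further: luciferase reporter driven by Pax8 target thyroperoxidase promoter measured by SteadyGlo luminescence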
# Sequence of Paired box protein Pax-8 (Q06710 whole entry): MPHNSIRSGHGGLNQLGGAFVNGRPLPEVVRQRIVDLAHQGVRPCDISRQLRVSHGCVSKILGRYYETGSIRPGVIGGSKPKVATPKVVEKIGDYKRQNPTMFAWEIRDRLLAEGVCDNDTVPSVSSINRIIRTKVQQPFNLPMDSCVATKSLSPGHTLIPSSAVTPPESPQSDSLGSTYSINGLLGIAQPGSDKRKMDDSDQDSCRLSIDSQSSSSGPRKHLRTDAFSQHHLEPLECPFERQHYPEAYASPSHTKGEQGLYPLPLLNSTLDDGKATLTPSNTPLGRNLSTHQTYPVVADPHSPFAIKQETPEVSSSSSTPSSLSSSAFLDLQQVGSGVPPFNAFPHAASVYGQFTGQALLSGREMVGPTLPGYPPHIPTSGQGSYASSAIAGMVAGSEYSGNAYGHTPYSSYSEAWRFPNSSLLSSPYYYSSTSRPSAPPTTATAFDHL
# [6] = molecular target: Luciferin 4-monooxygenase (Photinus pyralis, UniProt P08659); test: firefly luciferase enzyme inhibitors, dose response, biochemical, luminescence (AID 1891)
# Sequence of Luciferin 4-monooxygenase (P08659 whole entry): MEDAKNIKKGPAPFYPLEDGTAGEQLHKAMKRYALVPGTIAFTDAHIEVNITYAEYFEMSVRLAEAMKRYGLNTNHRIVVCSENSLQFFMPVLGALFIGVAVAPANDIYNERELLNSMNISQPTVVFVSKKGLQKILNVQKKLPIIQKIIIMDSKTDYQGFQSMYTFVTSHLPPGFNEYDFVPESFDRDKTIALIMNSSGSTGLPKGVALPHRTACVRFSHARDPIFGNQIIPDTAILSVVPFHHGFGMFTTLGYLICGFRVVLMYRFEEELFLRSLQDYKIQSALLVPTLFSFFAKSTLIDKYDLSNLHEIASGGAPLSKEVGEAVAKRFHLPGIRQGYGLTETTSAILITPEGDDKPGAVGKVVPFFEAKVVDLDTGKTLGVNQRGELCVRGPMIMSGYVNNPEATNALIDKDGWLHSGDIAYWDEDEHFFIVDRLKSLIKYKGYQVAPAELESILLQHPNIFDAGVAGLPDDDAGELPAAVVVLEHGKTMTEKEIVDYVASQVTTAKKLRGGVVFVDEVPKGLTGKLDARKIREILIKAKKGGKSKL
# [7] = Luminescence Cell-Based Dose Confirmation HTS to Identify Inhibitors of Platelet Dense Granule Release. [Related pubchem assays: 1663 (Primary HTS), 1678 (Summary of Project)]; type: functional
# [8] = molecular target: T2, Calpain-2 catalytic subunit (Sus scrofa, UniProt P43367); test: pig calpain II inhibitor potency, dose response, biochemical, fluorogenic peptide substrate (AID 1420); type: functional
# T2 sequence (P43367 whole entry): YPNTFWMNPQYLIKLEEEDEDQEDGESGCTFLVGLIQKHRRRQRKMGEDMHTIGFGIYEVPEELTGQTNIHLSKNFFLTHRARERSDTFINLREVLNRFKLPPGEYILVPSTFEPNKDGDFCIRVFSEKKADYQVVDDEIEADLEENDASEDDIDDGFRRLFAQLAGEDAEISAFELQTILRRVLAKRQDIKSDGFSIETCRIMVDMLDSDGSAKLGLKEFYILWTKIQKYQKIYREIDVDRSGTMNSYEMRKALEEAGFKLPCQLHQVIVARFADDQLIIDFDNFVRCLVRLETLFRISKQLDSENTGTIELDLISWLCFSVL
# INS1 = test: beta cell apoptosis inhibitors, cytokine rescue, dose response, luminescence, retest (AID 449756); type: functional, cell-based; conditions: Rattus norvegicus;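 further: cell death triggered by IL-1 beta plus TNF-alpha plus IFN-gamma mixture; protective hits raise ATP signal compared with cytokine alone wells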
# [9] = molecular target: T1, Heat shock factor protein 1; test: HSF1 potentiators in luciferase reporter cells, confirmation, cell-based, NIH3T3, luminescence, dose retest (AID 435004); type: functional;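 further: stress induced by proteasome inhibitor MG132 added 30 min after compound; luciferase reporter driven by HSF1 response element in NIH3T3 cells; actives raise luminescence as potentiators of the MG132 stress response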
# [10] = molecular target: Heat shock protein HSP 90-alpha (Homo sapiens, UniProt P07900); type: functional, organism-based
# [11] = C. albicans growth with fluconazole, confirmation, fluorescence, retest (AID 2467); type: functional, cell-based
# [12] = NIH-3T3 fibroblast cytotoxicity, dose response, cytotoxicity control, cell-based, fluorescence, Alamar Blue, secondary assay (AID 2327); type: functional;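 further: NIH-3T3 mouse fibroblasts cultured with fluconazole at 8 µg/mL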
# [13] = Luminescence Cell-Based Dose Response HTS to Identify Activators of Luciferase Translation or Activity in H4 […] Cells. [Related pubchem assays: 1829 (Project Summary), 1814 (Primary HTS)]; type: functional
# H4 = test: Luminescence Cell-Based Dose Response HTS to Identify Activators of 5'UTR Stem-Loop Driven Prion Protein mRNA Translation in H4 Neuroglioblastoma Cells. [Related pubchem assays: 1829 (Project Summary), 1814 (Primary HTS)]; type: functional; conditions: Homo sapiens
compound,measurement,setting,value
COc1ccc(N2CCN(CCCn3c(=S)[nH]c4ncccc4c3=O)CC2)cc1,EC50,BJ [1],> 150 µM (not active)
same,EC50,BJ [2],> 150 µM (not active)
same,EC50,[3],58.9 µM (active)
same,EC50,BJ [4],44.2 µM (active)
same,EC50,[5],> 195 µM (not active)
CO[C@H]1CN(C)C(=O)c2cc(NC(=O)c3nc4ccccc4s3)ccc2OC[C@H](C)N(Cc2cccnc2)C[C@H]1C,AC50,Paired box protein Pax-8,18.8 µM (active)
O=C(Nc1nccs1)C1CCN(S(=O)(=O)c2ccc(F)cc2)CC1,EC50,[6],> 112 µM (not active)
same,EC50,[7],18.6 µM (active)
COc1ccc(C(=O)N2CCCc3ccccc32)cc1,EC50,[6],> 112 µM (not active)
same,EC50,[7],> 112 µM (not active)
Cc1cc(NC(=O)CCN2C(=O)/C(=C/c3ccccc3Cl)SC2=S)no1,IC50,[8],> 50 µM (not active)
O=C(CSc1nc2ccccc2c(=O)n1-c1ccccc1)N1CCc2ccccc2C1,AC50,INS1,3.61 µM (active)
Nc1cc(Oc2cccnc2)cc([N+](=O)[O-])c1,IC50,[8],> 50 µM (not active)
COc1cc(/C=N/NC(N)=O)ccc1OCC(=O)N1C(C)CCCC1C (stereo not drawn),EC50,[6],> 112 µM (not active)
same,EC50,[7],5.74 µM (active)
O=c1cc(CN2CCN(c3ccccc3O)CC2)nc2sccn12,EC50,[6],> 112 µM (not active)
same,EC50,[7],53.2 µM (active)
O=C(CCCN1C(=O)/C(=C/c2cccc(Br)c2)SC1=S)Nc1ccccn1,AC50,Paired box protein Pax-8,5.71 µM (active)
CC(C)(C)c1ccc(CNc2ccc([N+](=O)[O-])cn2)cc1,IC50,[8],5.15 µM (active)
O=C(Nc1ccc(F)cc1)C1CCCCC1,EC50,[6],> 112 µM (not active)
same,EC50,[7],> 112 µM (not active)
CC1=Nc2cc(C(=O)NCCCOC(C)C)ccc2Sc2ccc(C)cc21,EC50,BJ [1],2.72 µM (active)
same,EC50,BJ [2],2.75 µM (active)
same,EC50,[3],2.86 µM (active)
same,EC50,BJ [4],3.85 µM (inconclusive)
CCOC(=O)c1ccc(N2C(=O)CC(N3CCC(Nc4ccc(F)cc4)CC3)C2=O)cc1 (stereo not drawn),EC50,[9],> 260 µM (inactive)
same,AC50,[10],3.01 µM (active)
Cc1ccc(S(=O)(=O)NCC23C=CC(O2)C2C(=O)N(c4ccccc4)C(=O)C23)cc1 (stereo not drawn),AC50,[10],17.7 µM (active)
CSc1ccc(/C=C2\C(=N)N3N=C(CC(=O)N4CCOCC4)SC3=NC2=O)cc1,EC50,[6],> 112 µM (not active)
same,EC50,[7],> 112 µM (not active)
Cc1noc(/C=C/c2ccccn2)c1[N+](=O)[O-],EC50,BJ [1],8.5 µM (active)
same,EC50,BJ [2],9.6 µM (active)
same,EC50,[3],9.44 µM (active)
same,EC50,BJ [4],24.5 µM (inconclusive)
same,EC50,[11],2.97 µM (active)
same,EC50,[12],3.04 µM (inconclusive)
CCOc1ccc(N2C(=O)/C(=C/c3ccccc3)N=C2SC)cc1,EC50,[13],0.135 µM (active)
same,EC50,H4,108 µM (active)

# — ChEMBL document CHEMBL1201862, “PubChem BioAssay data set” (2004)
